{
  "source": "patent US20230265425A1",
  "about": "“lncRNA-REGULATED GENE EXPRESSION SYSTEM” (MEMORIAL SLOAN KETTERING CANCER CENTER, priority 2020, published 2023)",
  "key": {"Pho1 acid phosphatase": {"tested_on": "Pho1 acid phosphatase", "assay": "Acid phosphatase activity assay of plasmid-bearing pho4Δ pho1Δ cells", "settings": "for Pho1 activity, % of the level attained with 15 μM thiamine: pTIN-pho1 cells", "protocol": "Acid phosphatase activity assay. Aliquots of exponentially growing cultures were harvested, washed with water, and re-suspended in water. To quantify acid phosphatase activity, reaction mixtures (200 μl) containing 100 mM sodium acetate (pH 4.2), 10 mM p-nitrophenyl phosphate (NEB), and cells (ranging from 0.01 to 0.1 A600 units) were incubated for 5 min at 30° C. The reactions were quenched by addition of 1 ml of 1 M sodium carbonate; the cells were removed by centrifugation and the absorbance of the supernatant was measured at 410 nm. Acid phosphatase activity is expressed as the ratio of A410 (p-nitrophenol production) to A600 (cells). The data are averages (±SEM) of at least three assays using cells from three independent cultures.\nTo assay the activity of this promoter system, pho1 was used as the reporter gene driven by the tgp1 promoter (FIG. 1A). Cell surface-associated Pho1 activity is readily assayable colorimetrically via the conversion ofp-nitrophenylphosphate to p-nitrophenol. The pho1 gene was cloned downstream of the tgp1 5′ UTR in the pTIN vector with its native 3′ flanking DNA to yield the pTIN-pho1 plasmid (FIG. 1A). To test background acid phosphatase levels, a promoter-less pTIN pho1 vector was constructed that lacked the DNA segment spanning the regulatory nmt1-promoternc·tgp1·tgp1 promoter region as well as the tgp1 5′ UTR and only contained the pho1 ORF. These plasmids were introduced into a strain in which the chromosomal pho1 and pho4 genes encoding the cell-surface acid phosphatases Pho1 and Pho4 were deleted. Plasmid-bearing pho1Δ pho4Δ cells were grown to mid-log phase in Leu^− PMG medium without thiamine and subsequently diluted and grown in Leu^− PMG medium with or without 15 μM thiamine. Pho1 acid phosphatase activity was measured by incubating dilutions of cells with p-nitrophenylphosphate and measuring its conversion to p-nitrophenol for 5 min at 30° C. The amount of product formed (within the linear range of detection) was normalized to cell density and is plotted on the y-axis in FIG. 1B."}, "pho1 mRNA": {"tested_on": "pho1 mRNA", "assay": "microbe, parasite or virus in culture", "settings": "for fold induction at 15 µM: Schizosaccharomyces pombe", "protocol": "Total RNA prepared from harvested samples was analyzed by reverse transcription primer extension using a mixture of radiolabeled primers complementary to the pho1 (top panel) or the act1 (bottom panel) mRNAs. The reaction products were resolved by denaturing urea-PAGE and visualized by autoradiography. The images shown in the top and bottom panels are from a single exposure of one gel. For conciseness of the figure, the intervening lanes of the gel were cropped (represented by the thin line separating the 3 and 10-hour samples). The positions and sizes (in nucleotides) of DNA markers are indicated on the left. Fold-induction reflects the ratio of the act1-normalizedpho1 signal at the indicated time to time-0.\nRNA analysis. Total RNA was extracted via the hot phenol method (Köhrer K. and Domdey H., Method Enzymol: 398-405 (1991), which is hereby incorporated by reference) from 3 A600 units of harvested yeast cells. For analysis of specific transcripts by primer extension, aliquots (5 μg) of total RNA were templated for M-MuLV reverse transcriptase-catalyzed extensions of 5′ 32P-labeled oligodeoxynucleotide primers complementary to the phot and actl mRNAs in one reaction mix. The primer sequence for act1 was, 5′-[…] (SEQ ID NO: 12), and for pho1, 5′-[…] (SEQ ID NO: 13). The primer extension reactions were performed as described by Schwer B., et al., Nucleic Acids Res 26: 2050-2057 (1998), which is hereby incorporated by reference, and the products were analyzed by electrophoresis of the reaction mixtures through a 22-cm 8% polyacrylamide gel containing 7 M urea in 80 mM Tris-borate, 1.2 mM EDTA. The ^32P-labeled primer extension products were visualized by autoradiography of the dried gel. Quantification of pho1 and act1 mRNA levels was done by scanning the dried gel with a phosphorimager and analyzing the data in ImageQuant software.\nPho1 acid phosphatase activity in pho1Δ pho4Δ A cells bearing the pTIN pho1 plasmid was determined as a function of time after addition of thiamine (FIG. 2A). […] To gauge the level of phol mRNA, primer extension analysis using a pho1-specific radiolabeled primer for reverse-transcription was used, in parallel with an actin gene-specific primer as a control."}},
  "note": "Where two headings read alike, the source gives them in different places.",
  "data": [
    {"smiles": "Cc1ncc(C[n+]2csc(CCO)c2C)c(N)n1", "note": "[thiamine]", "values": [
      {"measurement": "EC50", "setting": "Pho1 acid phosphatase; Schizosaccharomyces pombe, read-out: dose of half maximal response (EC50) of Pho1 activity", "result": "69 ± 5", "unit": "nM"},
      {"measurement": "fold induction at 15 µM", "setting": "Pho1 acid phosphatase; Schizosaccharomyces pombe, read-out: fold induction of Pho1 activity", "result": 59},
      {"measurement": "rate of Pho1 activity increase between 7 and 11 hours, % of the initial rate (1 to 7 hours)", "setting": "Pho1 acid phosphatase; pTIN pho1 cells after addition of 15 μM thiamine", "result": 58, "unit": "%"},
      {"measurement": "fold increase in acid phosphatase activity", "setting": "Pho1 acid phosphatase; pTIN pho1 cells, 15 μM thiamine vs thiamine-free medium, 21 hours", "result": 58, "unit": "fold"},
      {"measurement": "fold increase in Pho1 level over the uninduced state", "setting": "Pho1 acid phosphatase; pTIN pho1 cells, 23 hours after addition of 15 μM thiamine", "result": 53, "unit": "fold"},
      {"measurement": "Pho1 activity, % of the level attained with 15 μM thiamine", "setting": "Pho1 acid phosphatase; 0.01 μM thiamine", "result": 8, "unit": "%"},
      {"measurement": "Pho1 activity, % of the level attained with 15 μM thiamine", "setting": "Pho1 acid phosphatase; 0.025 μM thiamine", "result": 16, "unit": "%"},
      {"measurement": "Pho1 activity, % of the level attained with 15 μM thiamine", "setting": "Pho1 acid phosphatase; 0.05 μM thiamine", "result": 33, "unit": "%"},
      {"measurement": "Pho1 activity, % of the level attained with 15 μM thiamine", "setting": "Pho1 acid phosphatase; 0.075 μM thiamine", "result": 54, "unit": "%"},
      {"measurement": "Pho1 activity, % of the level attained with 15 μM thiamine", "setting": "Pho1 acid phosphatase; 0.1 μM thiamine", "result": 73, "unit": "%"},
      {"measurement": "Pho1 activity, % of the level attained with 15 μM thiamine", "setting": "Pho1 acid phosphatase; 0.3 μM thiamine", "result": 93, "unit": "%"},
      {"measurement": "Pho1 activity, % of the level attained with 15 μM thiamine", "setting": "Pho1 acid phosphatase; 3 μM thiamine", "result": 96, "unit": "%"},
      {"measurement": "fold increase in Pho1 activity on addition of thiamine", "setting": "Pho1 acid phosphatase; pho1Δ pho4Δ cells bearing pTIN7m pho1, 22 hours", "result": 172, "unit": "fold"},
      {"measurement": "thiamine concentration at which induction was saturated", "setting": "Pho1 acid phosphatase; pho1Δ pho4Δ cells bearing pTIN-pho1", "result": "≥ 0.3", "unit": "µM"},
      {"measurement": "fold induction at 15 µM", "setting": "pho1 mRNA; 0.5 h, read-out: pho1 mRNA fold induction (act1-normalized, vs time-0)", "result": 25},
      {"measurement": "fold induction at 15 µM", "setting": "pho1 mRNA; 1 h, read-out: pho1 mRNA maximum fold induction", "result": 61},
      {"measurement": "transcriptional induction by the addition of thiamine (dynamic range of pTIN system)", "setting": "pho1 mRNA; pTIN system", "result": "≤ 60", "unit": "fold"},
      {"measurement": "time after induction at which target mRNA levels reach peak", "setting": "pho1 mRNA; pTIN system, thiamine induction", "result": "≤ 1", "unit": "h"},
      {"measurement": "pho1 mRNA level, fold higher than the uninduced state", "setting": "pho1 mRNA; pTIN-pho1 cells, all times assayed after 1 hour", "result": "approximately 60 fold"}
    ]}
  ]
}
